# Target: T1, CA-IX (Homo sapiens, UniProt Q16790)
# T1 construct: His tag (C); purchased R&D Systems Inc. 2188-CA; host or cells: mouse myeloma cell line NS0
# Test: CA-IX combinatorial library screening, competitive fluorescence-based assay with dansylamide (DNSA)
# Type: binding
# Settings: 1 h; Table 1, Libraries 1-3; sample concentrations 100 nM and 1000 nM, DNSA 200 μM; screening at 1 μM; read-out: In Vitro Binding Assay (Library Screening)
# Protocol: General. CA-IX human recombinant enzyme was expressed with a C-terminal His tag in a mouse myeloma cell line, NS0 (R&D Systems Inc., catalog number 2188-CA). The human red blood cells were obtained from Research Blood Components, LLC. All absorbance measurements were performed on a SPECTRA MAX M2 plate reader at 25° C. The LC/MS analyses were performed on an Agilent 1100 series LC/MSD (SL) using a 30×2.1 mm Zorbax C8 column with a Phenomenex C18 pre-column. Compound detection was accomplished by electrospray mass spectroscopy in positive selected ion mode (LC/MS-SIM). The elution solvents were acetonitrile and water, contained 0.05% TFA. Nuclear magnetic resonance (NMR) spectra were obtained on a Bruker AMX 300 MHz spectrometer or a Varian 400. 19F NMR spectra were recorded on a Bruker AMX 282.35 MHz or a Varian 400 spectrometer. The mass spectra were recorded on an Agilent 1100 series LC/MSD with electrospray mass spectroscopic detection. Flash column chromatography was performed on Merck silica gel (40-63 μm) using the solvent system indicated. The radiochemical and chemical purities were analyzed by RP-HPLC.
# General Combinatorial Library Screening Protocol for CA-IX
# The CA-IX screening assay was employed for testing libraries derived from the various “anchor” molecules, using ethoxzolamide as a positive control. The assay was performed at a substrate (dansylamide, DNSA) concentration of 200 μM, and sample concentrations of 100 nM and 1000 nM, respectively. A modified competitive fluorescence-based assay (A. Jain, S. G. Huang, G. M. Whitesides, J. Am. Chem. Soc. 1994, 116, 5057) was used to measure CA-IX activity. The enzymatic assay was carried out in a 96-well plate. To the wells, deionized water, 40 μL of phosphate buffer (250 mM, pH 7.4), 2.4 μL of CA-IX (17 μM), and 2 μL or 20 μL of inhibitor (concentration of 100 nM or 1000 nM) were added to achieve a final volume of 180 μL. Reactions were initiated by adding 20 μL DNSA (200 μM) to each well and the plate was incubated at 25° C. for 1 hour. The fluorescence intensities from each well of the plate were then read at 460 nm using a plate reader with an excitation wavelength of 290 nm.
row,inhibition at 1 µM [%],SMILES
1,< 40,Cc1ccnc(NC(=O)[C@H](Cc2ccccc2)n2cc(COc3ccc4nc(S(N)(=O)=O)sc4c3)nn2)c1 [DHK115]
2,< 40,NS(=O)(=O)c1nc2ccc(OCc3cn(-c4cccc(C(=O)NN5CCOCC5)c4)nn3)cc2s1 [DHK116]
3,< 40,CC1CCCN(C(=O)C(C(C)C)n2cc(COc3ccc4nc(S(N)(=O)=O)sc4c3)nn2)C1 (centres unmarked) [DHK119]
4,< 40,Cc1ccc(C)c(CNC(=O)[C@H](Cc2ccccc2)n2cc(COc3ccc4nc(S(N)(=O)=O)sc4c3)nn2)c1 [DHK120]
5,< 40,CC(C)[C@@H](C(=O)NC1CCCCC1)n1cc(COc2ccc3nc(S(N)(=O)=O)sc3c2)nn1 [DHK124]
6,< 40,CC(C)[C@@H](C(=O)NCc1ccccc1)n1cc(COc2ccc3nc(S(N)(=O)=O)sc3c2)nn1 [DHK126]
7,< 40,COC(=O)C(Cc1ccc(C(=O)O)cc1)n1cc(COc2ccc3nc(S(N)(=O)=O)sc3c2)nn1 (centres unmarked) [DHK129]
8,< 40,CCCOC(=O)c1ccc(NC(=O)Cn2cc(COc3ccc4nc(S(N)(=O)=O)sc4c3)nn2)cc1 [DHK130]
9,< 40,CC(C)C(C(=O)Nc1ccc(-c2ccccc2)cc1)n1cc(COc2ccc3nc(S(N)(=O)=O)sc3c2)nn1 (centres unmarked) [DHK134]
10,< 40,CCCCCC[C@@H](O)[C@@H](O)c1ccc(Cn2cc(COc3ccc4nc(S(N)(=O)=O)sc4c3)nn2)cc1 [DHK135]
11,< 40,NS(=O)(=O)c1nc2ccc(OCc3cn(-c4ccnc5cc(Cl)ccc45)nn3)cc2s1 [DHK136]
12,< 40,NS(=O)(=O)c1nc2ccc(OCc3cn(CCCCCCO)nn3)cc2s1 [DHK137]
13,< 40,NS(=O)(=O)c1nc2ccc(OCc3cn(C(c4ccccc4)[C@@H](OC/C=C/c4ccccc4)c4ccccc4)nn3)cc2s1 (some centres unmarked) [DHK138]
14,< 40,CC(C)[C@@H](C(=O)NCCc1ccsc1)n1cc(COc2ccc3nc(S(N)(=O)=O)sc3c2)nn1 [DHK139]
15,< 40,NS(=O)(=O)c1nc2ccc(OCc3cn(CCn4c(=O)[nH]c5ccccc5c4=O)nn3)cc2s1 [DHK140]
16,< 40,NS(=O)(=O)c1nc2ccc(OCc3cn(CC(=O)N4CCN(c5cc(Cl)cc(Cl)c5)CC4)nn3)cc2s1 [DHK141]
17,< 40,NS(=O)(=O)c1nc2ccc(OCc3cn(C4CCN(S(=O)(=O)/C=C/c5ccccc5)CC4)nn3)cc2s1 [DHK143]
18,< 40,NS(=O)(=O)c1nc2ccc(OCc3cn(C4CCN(C(=O)/C=C/c5ccccc5)CC4)nn3)cc2s1 [DHK144]

# Continued, molecule first:
row,SMILES,inhibition at 1 µM [%]
1,NS(=O)(=O)c1ccc(-c2cn(C3CCN(S(=O)(=O)/C=C/c4ccccc4)CC3)nn2)cc1 [DHK109],< 40
2,CCCCCCCCCCC(C(=O)O)n1cc(CNC(=O)c2ccc(S(N)(=O)=O)cc2)nn1 (centres unmarked) [DHK110],< 40
3,NS(=O)(=O)c1ccc(-c2cn(C3C(O)C(O)OC3C(O)CO)nn2)cc1 (centres unmarked) [DHK111],< 40
4,NS(=O)(=O)c1ccc(C(=O)NCc2cn(C3C(O)C(O)OC3C(O)CO)nn2)cc1 (centres unmarked) [DHK112],< 40
5,NS(=O)(=O)c1nc2ccc(OCc3cn(CCN4CCOCC4)nn3)cc2s1 [DHK114],< 40
6,CC(C)(C)c1cc(C(=O)Cn2cc(COc3ccc4nc(S(N)(=O)=O)sc4c3)nn2)cc(C(C)(C)C)c1O [DHK132],< 40

# Same assay, conditions: 1 h; Table 2, Libraries 4-7; sample concentrations 100 nM and 1000 nM, DNSA 200 μM; screening at 1 μM; read-out: In Vitro Binding Assay (Library (Screening))
row,inhibition at 1 µM [%],SMILES
1,< 40,CN(Cc1ccccc1)C(=O)[C@H](Cc1ccccc1)n1cc(-c2ccc(S(N)(=O)=O)cc2)nn1 [DHK-2-2]
2,< 40,NS(=O)(=O)c1ccc(-c2cn([C@@H](Cc3ccccc3)C(=O)NCc3ccc(-c4ccccn4)s3)nn2)cc1 [DHK-2-5]

# Continued, molecule first:
row,SMILES,inhibition at 1 µM [%]
1,CC(C)[C@@H](C(=O)NCc1ccc(F)cc1)n1cc(-c2ccc(S(N)(=O)=O)cc2)nn1 [DHK165],< 40
2,CC(C)[C@@H](C(=O)N(C)Cc1ccccc1)n1cc(-c2ccc(S(N)(=O)=O)cc2)nn1 [DHK166],< 40
3,CC(C)[C@@H](C(=O)NCc1ccc(C(F)(F)F)cc1)n1cc(-c2ccc(S(N)(=O)=O)cc2)nn1 [DHK168],< 40
4,CC(C)[C@@H](C(=O)N1CCN(c2ccccn2)CC1)n1cc(-c2ccc(S(N)(=O)=O)cc2)nn1 [DHK174],< 40
5,CCOC(=O)[C@@H](Cc1ccccc1)NC(=O)[C@H](C(C)C)n1cc(-c2ccc(S(N)(=O)=O)cc2)nn1 [DHK175],< 40
6,CCOC(=O)[C@@H](NC(=O)[C@H](C(C)C)n1cc(-c2ccc(S(N)(=O)=O)cc2)nn1)C(C)C [DHK176],< 40
7,COC(=O)[C@H](C)NC(=O)[C@H](C(C)C)n1cc(-c2ccc(S(N)(=O)=O)cc2)nn1 [DHK177],< 40
8,CC(C)[C@@H](C(=O)NCc1ccccn1)n1cc(-c2ccc(S(N)(=O)=O)cc2)nn1 [DHK178],< 40
9,CC(C)[C@@H](C(=O)NC1CCCCC1)n1cc(-c2ccc(S(N)(=O)=O)cc2)nn1 [DHK179],< 40
10,CC(C)[C@@H](C(=O)NCC1CC1)n1cc(-c2ccc(S(N)(=O)=O)cc2)nn1 [DHK180],< 40
11,CC(C)[C@@H](C(=O)NCCCO)n1cc(-c2ccc(S(N)(=O)=O)cc2)nn1 [DHK181],< 40
12,Cc1onc(-c2ccccc2)c1CNC(=O)[C@H](C(C)C)n1cc(-c2ccc(S(N)(=O)=O)cc2)nn1 [DHK182],< 40
13,CCOC(=O)CCN(Cc1ccco1)C(=O)[C@H](C(C)C)n1cc(-c2ccc(S(N)(=O)=O)cc2)nn1 [DHK183],< 40
14,CCOC(=O)C1CCN(C(=O)[C@H](C(C)C)n2cc(-c3ccc(S(N)(=O)=O)cc3)nn2)CC1 [DHK184],< 40
15,CC(C)[C@@H](C(=O)N1CCN(CCO)CC1)n1cc(-c2ccc(S(N)(=O)=O)cc2)nn1 [DHK185],< 40
16,CC(C)[C@@H](C(=O)NC1c2ccccc2C[C@@H]1O)n1cc(-c2ccc(S(N)(=O)=O)cc2)nn1 (some centres unmarked) [DHK186],< 40
17,CC(C)[C@@H](C(=O)NCC1COc2ccccc2O1)n1cc(-c2ccc(S(N)(=O)=O)cc2)nn1 (some centres unmarked) [DHK187],< 40

row,SMILES,inhibition at 1 µM [%]
1,CC(C)[C@@H](C(=O)N1CCC(N2CCCC2)CC1)n1cc(-c2ccc(S(N)(=O)=O)cc2)nn1 [DHK188],< 40
2,CC(C)[C@@H](C(=O)NCc1nc2ccccc2n1C)n1cc(-c2ccc(S(N)(=O)=O)cc2)nn1 [DHK189],< 40
3,CC(C)[C@@H](C(=O)N1CCN(c2ncccn2)CC1)n1cc(-c2ccc(S(N)(=O)=O)cc2)nn1 [DHK190],< 40
4,CC(C)[C@@H](C(=O)NCCN1CCN(Cc2ccccc2)CC1)n1cc(-c2ccc(S(N)(=O)=O)cc2)nn1 [DHK191],< 40
5,NS(=O)(=O)c1ccc(-c2cn([C@@H](Cc3ccccc3)C(=O)NCc3ccc(F)cc3)nn2)cc1 [DHK-2-1],< 40
6,CN(C)Cc1ccc(CSCCNC(=O)[C@H](Cc2ccccc2)n2cc(-c3ccc(S(N)(=O)=O)cc3)nn2)o1 [DHK-2-3],< 40
7,NS(=O)(=O)c1ccc(-c2cn([C@@H](Cc3ccccc3)C(=O)N3CCN(c4ncccn4)CC3)nn2)cc1 [DHK-2-4],< 40
8,NS(=O)(=O)c1ccc(-c2cn([C@@H](Cc3ccccc3)C(=O)N3CCC[C@@H]3CO)nn2)cc1 [DHK-2-6],< 40
9,NS(=O)(=O)c1ccc(-c2cn([C@@H](Cc3ccccc3)C(=O)N3CCN(c4ccccn4)CC3)nn2)cc1 [DHK-2-7],< 40
10,CCOC(=O)[C@@H](Cc1ccccc1)NC(=O)[C@H](Cc1ccccc1)n1cc(-c2ccc(S(N)(=O)=O)cc2)nn1 [DHK-2-8],< 40
11,CCOC(=O)[C@@H](NC(=O)[C@H](Cc1ccccc1)n1cc(-c2ccc(S(N)(=O)=O)cc2)nn1)C(C)C [DHK-2-9],< 40
12,COC(=O)[C@H](C)NC(=O)[C@H](Cc1ccccc1)n1cc(-c2ccc(S(N)(=O)=O)cc2)nn1 [DHK-2-10],< 40
13,NS(=O)(=O)c1ccc(-c2cn([C@@H](Cc3ccccc3)C(=O)NCc3ccccn3)nn2)cc1 [DHK-2-11],< 40
14,NS(=O)(=O)c1ccc(-c2cn([C@@H](Cc3ccccc3)C(=O)NC3CCCCC3)nn2)cc1 [DHK-2-12],< 40
15,NS(=O)(=O)c1ccc(-c2cn([C@@H](Cc3ccccc3)C(=O)NCC3CC3)nn2)cc1 [DHK-2-13],< 40
16,NS(=O)(=O)c1ccc(-c2cn([C@@H](Cc3ccccc3)C(=O)NCCCO)nn2)cc1 [DHK-2-14],< 40

# — patent publication US7829063B2, “Development of molecular imaging probes for carbonic anhydrase-IX using click chemistry” (Siemens Medical Solutions USA, Inc., priority 2007, dated 2010)
